Laboratory results: patent US20250296959A1, “B7-H3 TARGETING PEPTIDES AND CONSTRUCTS THEREOF” (Mariana Oncology Inc., priority 2024, published 2025)
Where two headings read alike, the source gives them in different places. Starred links: 1 amine or outer side, 2 acyl side, 3 side chain; linkers in the order of their positions; H or OH if unused. Positions of bridges follow the written chain, without caps; N, C: chain ends. Non-standard residues stand in square brackets, D forms with d. Residues, ends and D or L forms follow the SMILES beside them. *: point of attachment. Ala(piperidin-4-yl) = O=C([C@H](CC1CCN([*:3])CC1)N[*:1])[*:2]; Phe(3-CH2NH2) = O=C([C@H](Cc1cccc(CN[*:3])c1)N[*:1])[*:2]; DOTA = O=C(O)CN1CCN(CC(=O)O)CCN(CC(=O)*)CCN(CC(=O)O)CC1; Trp(5-F) = N[C@@H](Cc1c[nH]c2ccc(F)cc12)C(=O)O; 1Nal = N[C@@H](Cc1cccc2ccccc12)C(=O)O; Val(3-OH) = CC(C)(O)[C@H](N)C(=O)O; 4Pal = N[C@@H](Cc1ccncc1)C(=O)O; aThr = C[C@H](O)[C@H](N)C(=O)O; Chg = N[C@H](C(=O)O)C1CCCCC1; Tle = CC(C)(C)[C@H](N)C(=O)O; hLeu = CC(C)CC[C@H](N)C(=O)O

Tests used:
Calu-6 cell line [1] = test: Cell associated (bound) fraction of [177Lu]Lu-labeled peptide in Calu-6 cells; assay type: cell-based, Human; conditions: 1 hour, 37° C.
Experimental: (§1) [^177Lu]LuCl3 was received from venders in HCl solution. For every mCi of [^177Lu]LuCl3 added to the reaction vial (1.5 mL Eppendorf vial), ammonium acetate buffer (0.2 M, pH 4.9, 100 μL, containing 1% w/v ascorbic acid and 6% v/v ethanol) and peptide conjugate (1 nmol) was added. The pH of the solution was determined to be approximately 5 by using pH strips. The reaction vial was incubated at 80° C., 700 RPM for 17-20 minutes. A sample from the reaction was analyzed by RP-HPLC using an Agilent Infinity II 1260 HPLC to determine reaction completion and radiochemical purity. HPLC conditions: Waters XBridge BEH C18 Column, 130 Å, 3.5 μm, 4.6 mm×250 mm; mobile phase: Solvent A=water (with 0.1% formic acid), solvent B=acetonitrile (with 0.1% formic acid). Gradients: 25-45% B in 10 minutes, 45-65% B in 12 minutes, 65-90% in 6 minutes at a flow rate of 0.5 mL/minute. Required amounts of the product were formulated in 1% PBSA for cell studies.
(§2) The study was conducted using Calu-6 cell line (Table 8)
(§3) Adherent cell studies: The cells were cultured in appropriate culture media (20 mL) in tissue culture treated T150 flasks at 37° C. and 5% CO2. Adherent cells were detached (60-70% confluent) using 5 mL Versene at 37° C. for 3 minutes. After confirming the viability using countess and count of detached cells using Trypan blue, the cells were centrifuged at 4° C. for 5 minutes (1,000 revolutions per minute). The cell pellet obtained was washed once with PBS and resuspended in 1% PBSA to obtain the desired cell concentration (5 million cells/mL).
Cell associated fraction: Cells were incubated with 300 μL (0.8 μCi) of the incubation buffer (containing radiolabeled peptide [^177Lu]Lu-test peptide) for 1 hour at 37 C (Table 9). Post incubation, the cells were pelleted and washed 2 times using cold PBS+1% BSA. The supernatant and washes were combined and counted together as “unbound fraction” in a gamma counter. The cells were then resuspended in 300 μL of 1% PBS+1% BSA and counted in the gamma counter as cell associated fraction (or bound fraction).
(§4) Calu-6 Cells are Human-Derived, Non-Engineered Lung Cancer Cell that Express B7-H3.

Calu-6 cell line [2] = test: Net internalization of [177Lu]Lu-labeled peptide in Calu-6 cells; assay type: cell-based, Human; conditions: 1 hour, 37° C., glycine pH 2.5 acid wash
Experimental: as §1, §2, §3
Net internalization: The resuspended cells in 300 μl of 1% PBSA and counted in the gamma counter as “bound fraction” were collected in 1.5 mL Eppendorf tube and pelleted. The pelleted cells were incubated with 300 μl of 50 mM Glycine pH=2.5 for 3 minutes and then pelleted discarding the supernatant. This process was repeated one more time. The pelleted cells were washed with 300 μl of cold 1% PBSA and then resuspended in 300 μl 0.3 M NaOH. This was counted in the gamma counter as “internalized fraction”.
as §4

human 4lg B7-H3 = target: T1, human 4lg B7-H3 (Homo sapiens, UniProt Q5ZPR3); test: Affinity determination by surface plasmon resonance (SPR) to 4Ig B7-H3; conditions: 4Ig B7-H3, 25° C. flow cell temperature
T1 sequence (Q5ZPR3 29-534): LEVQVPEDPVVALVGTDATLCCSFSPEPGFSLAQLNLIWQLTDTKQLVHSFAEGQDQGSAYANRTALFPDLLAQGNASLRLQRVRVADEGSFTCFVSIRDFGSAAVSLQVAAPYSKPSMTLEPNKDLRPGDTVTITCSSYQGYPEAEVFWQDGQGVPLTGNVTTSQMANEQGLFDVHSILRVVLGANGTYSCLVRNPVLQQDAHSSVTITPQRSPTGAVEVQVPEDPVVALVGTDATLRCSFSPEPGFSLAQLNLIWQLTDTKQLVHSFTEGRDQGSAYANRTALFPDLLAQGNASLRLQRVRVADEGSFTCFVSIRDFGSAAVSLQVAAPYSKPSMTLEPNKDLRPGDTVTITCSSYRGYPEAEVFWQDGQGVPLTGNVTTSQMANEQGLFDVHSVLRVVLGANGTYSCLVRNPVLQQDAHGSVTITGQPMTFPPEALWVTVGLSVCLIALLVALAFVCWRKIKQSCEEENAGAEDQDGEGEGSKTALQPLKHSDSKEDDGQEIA

Row | Compound | % cell associated fraction (Calu-6 cell line [1]) | % net internalization (Calu-6 cell line [2]) | Kd (human 4lg B7-H3; SPR KD—25° C.) | Kd (human 4lg B7-H3; read-out: SPR KD—25° C.)
1 | CC(=O)N[C@@H](CCC(C)C)C(=O)N[C@@H](Cc1ccc(O)cc1)C(=O)N[C@H]1CSSC[C@@H](C(=O)N[C@@H](Cc2cccc3ccccc23)C(=O)N[C@@H](Cc2ccccc2)C(=O)N[C@H](C(=O)N[C@H](CCCCNC(=O)CN2CCN(CC(=O)O)CCN(CC(=O)O)CCN(CC(=O)O)CC2)C(N)=O)[C@@H](C)O)NC(=O)[C@H](Cc2ccc(O)cc2)NC(=O)[C@H](C(C)C)NC(=O)[C@H](CC(=O)O)NC(=O)[C@H](Cc2ccc(O)cc2)NC(=O)[C@H](CCCCN)NC(=O)CNC(=O)[C@H](C(C)C)NC1=O [compound 158, Ac-hLeu-Y-C-V-G-K-Y-D-V-Y-C-1Nal-F-Thr-dLys(DOTA)-CONH2] (Ac-[hLeu]YCVGKYDVYC[1Nal]FT[dK](DOTA)-NH2; disulfide 3-11) | C (%>50) | B (25<%≤50) | < 1 nM | –
2 | CC(=O)N[C@@H](CCC(C)C)C(=O)N[C@@H](Cc1ccc(O)cc1)C(=O)N[C@H]1CSSC[C@@H](C(=O)N[C@@H](Cc2c[nH]c3ccc(F)cc23)C(=O)N[C@@H](Cc2ccccc2)C(=O)N2CCC[C@H]2C(=O)N[C@H](CCCCNC(=O)CN2CCN(CC(=O)O)CCN(CC(=O)O)CCN(CC(=O)O)CC2)C(N)=O)NC(=O)[C@H](Cc2ccc(O)cc2)NC(=O)[C@H](C(C)C)NC(=O)[C@H](CC(=O)O)NC(=O)[C@H](Cc2ccc(O)cc2)NC(=O)[C@H](CCCCN)NC(=O)CNC(=O)[C@H](C(C)C)NC1=O [compound 160, Ac-hLeu-Y-C-V-G-K-Y-D-V-Y-C-5FW-F-Pro-dLys(DOTA)-CONH2] (Ac-[hLeu]YCVGKYDVYC[Trp(5-F)]FP[dK](DOTA)-NH2; disulfide 3-11) | B (25<%≤50) | A (%≤25) | – | < 1 nM
3 | CC(=O)N[C@@H](CCC(C)C)C(=O)N[C@@H](Cc1ccc(O)cc1)C(=O)N[C@H]1CSSC[C@@H](C(=O)N[C@@H](Cc2c[nH]c3ccc(F)cc23)C(=O)N[C@@H](Cc2ccccc2)C(=O)N[C@H](C(=O)N[C@H](CCCCNC(=O)CN2CCN(CC(=O)O)CCN(CC(=O)O)CCN(CC(=O)O)CC2)C(N)=O)[C@H](C)O)NC(=O)[C@H](Cc2ccc(O)cc2)NC(=O)[C@H](C(C)C)NC(=O)[C@H](CC(=O)O)NC(=O)[C@H](Cc2ccc(O)cc2)NC(=O)[C@H](CCCCN)NC(=O)CNC(=O)[C@H](C(C)C)NC1=O [compound 162, Ac-hLeu-Y-C-V-G-K-Y-D-V-Y-C-5FW-F-alloThr-dLys(DOTA)-CONH2] (Ac-[hLeu]YCVGKYDVYC[Trp(5-F)]F[aThr][dK](DOTA)-NH2; disulfide 3-11) | B (25<%≤50) | A (%≤25) | – | < 1 nM
4 | CC(=O)N[C@@H](CCC(C)C)C(=O)N[C@@H](Cc1ccc(O)cc1)C(=O)N[C@H]1CSSC[C@@H](C(=O)N[C@@H](Cc2cccc3ccccc23)C(=O)N[C@@H](Cc2ccccc2)C(=O)N[C@H](C(=O)N[C@H](CCCCNC(=O)CN2CCN(CC(=O)O)CCN(CC(=O)O)CCN(CC(=O)O)CC2)C(N)=O)[C@@H](C)O)NC(=O)[C@H](Cc2ccc(O)cc2)NC(=O)[C@H](C(C)C)NC(=O)[C@H](CC(=O)O)NC(=O)[C@H](Cc2ccc(O)cc2)NC(=O)[C@H](CCCCN)NC(=O)CNC(=O)[C@H](C(C)(C)C)NC1=O [compound 179, Ac-hLeu-Y-C-Tbg-G-K-Y-D-V-Y-C-1Nal-F-Thr-dLys(DOTA)-CONH2] (Ac-[hLeu]YC[Tle]GKYDVYC[1Nal]FT[dK](DOTA)-NH2; disulfide 3-11) | B (25<%≤50) | A (%≤25) | – | < 1 nM
5 | CC(=O)N[C@@H](CCC(C)C)C(=O)N[C@@H](Cc1ccc(O)cc1)C(=O)N[C@H]1CSSC[C@@H](C(=O)N[C@@H](Cc2c[nH]c3ccc(F)cc23)C(=O)N[C@@H](Cc2ccccc2)C(=O)N[C@H](C(N)=O)[C@@H](C)O)NC(=O)[C@H](Cc2ccc(O)cc2)NC(=O)[C@H](C(C)C)NC(=O)[C@H](CC(=O)O)NC(=O)[C@H](Cc2cccc(CNC(=O)CN3CCN(CC(=O)O)CCN(CC(=O)O)CCN(CC(=O)O)CC3)c2)NC(=O)[C@H](CCCCN)NC(=O)CNC(=O)[C@H](C(C)C)NC1=O [compound 182, Ac-hLeu-Y-C-V-G-K-MAF(DOTA)-D-V-Y-C-5FW-F-Thr-CONH2] (Ac-[hLeu]YCVGK[Phe(3-CH2NH2)](DOTA)DVYC[Trp(5-F)]FT-NH2; disulfide 3-11) | C (%>50) | C (%>50) | < 1 nM | –
6 | CC(=O)N[C@@H](CCC(C)C)C(=O)N[C@@H](Cc1ccc(O)cc1)C(=O)N[C@H]1CSSC[C@@H](C(=O)N[C@@H](Cc2c[nH]c3ccc(F)cc23)C(=O)N[C@@H](Cc2ccccc2)C(=O)N[C@H](C(=O)N[C@H](CCCCNC(=O)CN2CCN(CC(=O)O)CCN(CC(=O)O)CCN(CC(=O)O)CC2)C(N)=O)[C@@H](C)O)NC(=O)[C@H](Cc2ccc(O)cc2)NC(=O)[C@H](C2CCCCC2)NC(=O)[C@H](CC(=O)O)NC(=O)[C@H](Cc2ccncc2)NC(=O)[C@H](CCCCN)NC(=O)CNC(=O)[C@H](C(C)C)NC1=O [compound 190, Ac-hLeu-Y-C-V-G-K-4PyA-D-ChG-Y-C-5FW-F-Thr-dLys(DOTA)-CONH2] (Ac-[hLeu]YCVGK[4Pal]D[Chg]YC[Trp(5-F)]FT[dK](DOTA)-NH2; disulfide 3-11) | C (%>50) | B (25<%≤50) | – | < 1 nM
7 | CC[C@H](C)[C@@H]1NC(=O)[C@@H](NC(=O)[C@H](Cc2ccc(O)cc2)NC(=O)[C@H](CCC(C)C)NC(C)=O)CSSC[C@@H](C(=O)N[C@@H](Cc2c[nH]c3ccc(F)cc23)C(=O)N[C@@H](Cc2ccccc2)C(=O)N[C@H](C(N)=O)C(C)(C)O)NC(=O)[C@H](Cc2ccc(O)cc2)NC(=O)[C@H](C(C)C)NC(=O)[C@H](CC(=O)O)NC(=O)[C@H](CC2CCNCC2)NC(=O)[C@H](CCCCNC(=O)CN2CCN(CC(=O)O)CCN(CC(=O)O)CCN(CC(=O)O)CC2)NC(=O)CNC1=O [compound 203, Ac-hLeu-Y-C-Ile-G-Lys(DOTA)-PipAla-D-V-Y-C-5FW-F-hydroxyVal-CONH2] (Ac-[hLeu]YCIGK(DOTA)[Ala(piperidin-4-yl)]DVYC[Trp(5-F)]F[Val(3-OH)]-NH2; disulfide 3-11) | B (25<%≤50) | A (%≤25) | < 1 nM | –
8 | CC(=O)N[C@@H](CCC(C)C)C(=O)N[C@@H](Cc1ccc(O)cc1)C(=O)N[C@H]1CSSC[C@@H](C(=O)N[C@@H](Cc2c[nH]c3ccc(F)cc23)C(=O)N[C@@H](Cc2ccccc2)C(=O)N[C@H](C(=O)N[C@H](CCCCNC(=O)CN2CCN(CC(=O)O)CCN(CC(=O)O)CCN(CC(=O)O)CC2)C(N)=O)[C@@H](C)O)NC(=O)[C@H](Cc2ccc(O)cc2)NC(=O)[C@H](C2CCCCC2)NC(=O)[C@H](CC(=O)O)NC(=O)[C@H](Cc2ccc(O)cc2)NC(=O)[C@H](CCCCN)NC(=O)CNC(=O)[C@H](C(C)C)NC1=O [compound 215, Ac-hLeu-Y-C-V-G-K-Y-D-ChG-Y-C-5FW-F-Thr-dLys(DOTA)-CONH2] (Ac-[hLeu]YCVGKYD[Chg]YC[Trp(5-F)]FT[dK](DOTA)-NH2; disulfide 3-11) | C (%>50) | A (%≤25) | – | < 1 nM
